The values below come from patent publication US20110171134A1, “(6S)-5-METHYLTETRAHYDROFOLIC ACID FOR THERAPY OF TISSUE INJURY” (priority 2008, published 2011).

The test system of assay [1] is dorsal root ganglia (DRG) neurons. As for the experimental part: The nerve graft provides a supportive environment for axon growth. Removal of the nerve segment injures the peripheral axons of DRG neurons on one side (the “conditioning” lesion), whereas neurons on the opposite side are unaffected by the peripheral injury (“unconditioned”). At 2 weeks, a fluorescent tracer is injected 1 cm into the graft and is transported to the cell bodies of DRG neurons that are able to extend axons into the graft. The fluorescent tracer is taken up in the regenerated neurons only.
Sixty four adult male Sprague-Dawley rats (200-300 gm) were subjected to surgery under ketamine/xylazine anesthesia, as previously described (FIG. 1.) The cervical cord was exposed through a C3 laminectomy and dural opening. Using a pair of sharp jeweler's forceps, a well-defined 1 mm-deep injury was made in both posterior columns. A sciatic nerve segment harvested from the left hindlimb then was implanted at the injury site using 10-0 nylon sutures in the pia. The other end of the graft was left to lie freely under the skin.
Two weeks later, 5 μl of the retrograde tracer Fluorogold was placed into the nerve graft at a distance of 1 cm from the spinal cord. […] Rather, it is picked up solely by axons that have grown into the graft and is transported retrogradely in these axons.
Twenty four hours later, the animal was deeply anesthetized and perfused through the heart with 4% paraformaldehyde. The L5 dorsal root ganglia (DRG) were removed bilaterally, postfixed, incubated in 30% sucrose overnight, and quick frozen in Histo Prep (TM). Sections were cut at 10 μm with a cryostat, floated on pretreated glass slides, and stored at −80° C.
Animals were treated with intraperitoneal doses of (6S)-5-methyltetrahydrofolic acid ranging from 10 to 800 μg/kg, starting 3 days before the injury and given daily for 2 weeks.
Dorsal root ganglion sections were examined under a fluorescence microscope and the number of fluorescently labeled cells was counted (see FIG. 1.B). The same sections were then counterstained with cresyl violet to reveal the cell somas of all neurons in the DRG. Fluorescently labeled cells and total cells were counted in treated and control animals by an observer unaware of the treatment conditions. The percentage of labeled DRG cells in each animal was calculated. To determine neuronal numbers accurately, the method of Abercombie was used, in which only cells with visible nucleoli are counted.
The Wilcoxon rank-sum test and box-and-whiskers plots were used to compare the different groups.

Assay [2] has the same test system. The conditions noted are these: cited from earlier work.
[3] abbreviates: regeneration of axons into peripheral nerve grafts after damage to the spinal cord.

On to `CN1c2c(nc(N)[nH]c2=O)NC[C@@H]1CNc1ccc(C(=O)N[C@@H](CCC(=O)O)C(=O)O)cc1` [(6S)-5-methyltetrahydrofolic acid], for which the “percentage of conditioned DRG neurons that were fluorescently labeled” value in assay [1] (80 ug/kg daily, 3 days before injury to 2 weeks after, with conditioning peripheral nerve lesion, mean ± SEM, n=13) is on record as 30.68%±2.97. The “mean neurons per ganglion regenerating, treatment combined with peripheral injury” value in assay [1] (80 ug/kg, conditioned DRG) is on record as 980 neurons per ganglion. In assay [1] (800 ug/kg, conditioned), the “spinal regeneration, conditioned animals compared with controls, highest dose” value was “decreased regeneration”. For the same compound, the “spinal regeneration, unconditioned group, highest dose” value in assay [1] (800 ug/kg, unconditioned) is “no evidence of spinal regeneration”. In assay [1] (10-400 g/kg as printed, intraperitoneal daily, all treated groups except 800 ug/kg), the “regeneration in unconditioned DRG in treated animals (FIG. 2)” value is “Measurable regeneration”. In addition, the “mean labeled neurons per ganglion, unconditioned DRG” value in assay [1] (80 N-g/kg intraperitoneal daily, from 3 days before injury for 2 weeks, absence of peripheral nerve injury, n=13) is recorded as 320 labeled neurons per ganglion. Further, the “percentage of labeled unconditioned DRG neurons” value in assay [1] (80 N-g/kg intraperitoneal daily, absence of peripheral nerve injury, mean ± SEM, n=13) is 10.25%±2.30. Also, in assay [1] (conditioned, compared with the 80 ug/kg dose), the “regeneration of conditioned DRG at doses higher or lower than 80 ug/kg” value is listed as “less effective”. Besides, in assay [1] (optimal dose of 80 ug/kg, unconditioned), the “axons per ganglion regenerating, treatment without peripheral nerve injury” value was “approximately 319 axons per ganglion”. Besides, the “increase in regenerative efficacy” value in assay [1] (setting [3]) is no less than 30%.
Take `Nc1nc2ncc(CNc3ccc(C(=O)N[C@@H](CCC(=O)O)C(=O)O)cc3)nc2c(=O)[nH]1` [folic acid]: the “regeneration observed with folic acid” value in assay [2] (mean ± SEM, n=15, Iskandar, Ann Neurol. 2004) is given as 16.26%±1.12. In assay [2] (setting [3]), the “increase in regenerative efficacy (folic acid comparison)” value was “approximately 16%”.
